Experiment [1] concerns HepG2. The experiment in a line: Anti-lipid accumulation activity in human HepG2 cells assessed as reduction in FFA-induced intracellular lipid level pretreated with compound for 48 hrs followed by FFA addition and measured after 48 hrs. The format is functional, cell-based. The settings on record: time 96.0 hrs.
Experiment [2] has as its system HepG2. Put plainly: Downregulation of FAS mRNA expression in FFA-induced human HepG2 cells at 5 to 10 uM pretreated with compound for 24 hrs followed by FFA-induction and measured after 24 hrs by qRT-PCR analysis. The format is functional, cell-based. The settings on record: dose 5-10 µM, time 48.0 hrs.
The test system of experiment [3] is HepG2. The experiment in a line: Upregulation of ACOX1 mRNA expression in FFA-induced human HepG2 cells at 5 to 10 uM pretreated with compound for 24 hrs followed by FFA-induction and measured after 24 hrs by qRT-PCR analysis. The experiment is classed as functional, cell-based. The settings on record: dose 5-10 µM, time 48.0 hrs. A general note: In qPCR the cycle at which signal appears reflects the starting amount.

Experiment [4] has as its system HepG2. Put plainly: Downregulation of FATP2 mRNA expression in FFA-induced human HepG2 cells at 5 to 10 uM pretreated with compound for 24 hrs followed by FFA-induction and measured after 24 hrs by qRT-PCR analysis. The experiment is classed as functional, cell-based. Conditions: dose 5-10 µM, time 48.0 hrs.
The subject of experiment [5] is HepG2. The experiment in a line: Anti-lipid accumulation activity in human HepG2 cells assessed as reduction in FFA-induced intracellular lipid level at 10 uM pretreated with compound for 48 hrs followed by FFA addition and measured after 48 hrs. The format is functional. Further details: scale not given: the % may be the effect or the level left. Conditions: time 96 hrs.

Experiment [6] concerns HepG2. The experiment in a line: Anti-lipid accumulation activity in human HepG2 cells assessed as reduction in FFA-induced intracellular triglyceride content incubated for 24 hrs. The format is functional, cell-based. Conditions: dose 5-10 µM.
Experiment [7] concerns HepG2. The experiment in a line: Upregulation of PPARalpha mRNA expression in FFA-induced human HepG2 cells at 5 to 10 uM pretreated with compound for 24 hrs followed by FFA-induction and measured after 24 hrs by qRT-PCR analysis. The format is functional, cell-based. Conditions: dose 5-10 µM, time 48.0 hrs.
Experiment [8] concerns HepG2. Put plainly: Downregulation of SCD1 mRNA expression in FFA-induced human HepG2 cells at 5 to 10 uM pretreated with compound for 24 hrs followed by FFA-induction and measured after 24 hrs by qRT-PCR analysis. The settings on record: dose 5-10 µM, time 48.0 hrs. The experiment is classed as functional, cell-based.
Experiment [9] deals with HepG2. Put plainly: Downregulation of FATP5 mRNA expression in FFA-induced human HepG2 cells at 5 to 10 uM pretreated with compound for 24 hrs followed by FFA-induction and measured after 24 hrs by qRT-PCR analysis. The experiment is classed as functional, cell-based. Conditions: dose 5-10 µM, time 48.0 hrs.
Experiment [10] deals with HepG2. Put plainly: Anti-lipid accumulation activity in human HepG2 cells assessed as reduction in FFA-induced number of lipid droplets at 5 to 10 uM pretreated with compound for 24 hrs followed by FFA addition and measured after 48 hrs by oil red O staining based analysis. The format is functional, cell-based. Conditions: dose 5-10 µM, time 72.0 hrs.

Activity calls are given as the source filed them. The rule behind the calls is not given here.

As to `C[C@@H]1C=C2C=C[C@]3(CO)OCCC(=O)[C@]3(C)[C@H]2[C@@H](O)C1`, the result in the experiment on HepG2 [1] was Active.
The same measure, in the same setting: next, `C[C@H]1C[C@H](O)[C@H]2[C@@H](C=C[C@@](C)(O)[C@]2(C)C(=O)CCO)C1`: “Active”; `C[C@@H]1C=C2C=CC3OCCC(=O)[C@]3(C)[C@H]2[C@@H](O)[C@H]1O` (some centres undefined): “Active”.
`C\C(=C/C=C/C=C/[C@H]1[C@@H](C)[C@H](O)[C@@H](O)[C@H]2C[C@@H](C)C[C@@H](C)[C@H]12)C(=O)O`: the outcome in the experiment on HepG2 [2], in the experiment on HepG2 [3], in the experiment with HepG2 [4], in the experiment with HepG2 [1], with HepG2 [7] and in the experiment with HepG2 [8] was Active. Also, the result in the experiment with HepG2 [9] and in the experiment with HepG2 [10] was Active. Besides, the results for the Activity with HepG2 [5] and in the experiment on HepG2 [6] were 50% and “Dose-Dependent Effect”, respectively.
Consider `C=C(C)CC(=O)O[C@@H]1C[C@H](C)C[C@@H]2CC(=O)[C@@H](C)[C@H]([C@@H]3O[C@H]3[C@@H](O)[C@H]3C=C(C)C(=O)O3)[C@H]21`, for which the outcome in the experiment on HepG2 [1] was Active.
Turning to `C[C@@H]1C=C2C=C[C@]3(C)OCCC(=O)[C@]3(C)[C@H]2[C@@H](O)C1`, the result in the experiment with HepG2 [1] was Active.
The same measure, in the same setting: as for `C/C(=C\[C@H](O)[C@H](O)[C@H](O)[C@H](O)[C@@H]1[C@@H]2[C@@H](CC(=O)[C@@H]1C)C[C@@H](C)C[C@H]2O)C(=O)O`, the entry is “Active”.
As for `C=C(C)CC(=O)O[C@@H]1C[C@H](C)C[C@@H]2CC(=O)[C@@H](C)[C@H]([C@@H]3O[C@H]3[C@H](O)[C@H]3C=C(C)C(=O)O3)[C@H]21`, in the experiment with HepG2 [1], the outcome was Active.
The same measure, in the same setting: next, `C=C(C)CC(=O)O[C@@H]1C[C@H](C)C[C@@H]2CC(=O)[C@@H](C)[C@H]([C@@H]3O[C@H]3[C@H](O)[C@@H]3C=C(C)C(=O)O3)[C@H]21`: “Active”; `Cc1ccc2c(c1)[C@H]1O[C@]3(O)CCO[C@](C)([C@H]1O)[C@]23C`: “Active”.

The values are drawn from ChEMBL document CHEMBL5385918, “Aculeatiols A-G: Lovastatin Derivatives Extracted from Aspergillus aculeatus” (2024).
